Test results as given in publication doi:10.1101/2023.04.18.537371v1 (bioRxiv, 2023).
pIC50: −log10 of the molar value. Peptide text beside a SMILES is read from it.

Key:
Plasma stability [1] = format: in vitro ADME, human
OATP1B1 = OATP1B1 (Homo sapiens, UniProt Q9Y6L6); assay: Transporter inhibition in HEK293 cells; format: in vitro ADME
CYP2B6 = target: T1, CYP2B6 (Homo sapiens, UniProt P20813); assay: biochemical; format: in vitro ADME
T1 sequence (P20813 1-491): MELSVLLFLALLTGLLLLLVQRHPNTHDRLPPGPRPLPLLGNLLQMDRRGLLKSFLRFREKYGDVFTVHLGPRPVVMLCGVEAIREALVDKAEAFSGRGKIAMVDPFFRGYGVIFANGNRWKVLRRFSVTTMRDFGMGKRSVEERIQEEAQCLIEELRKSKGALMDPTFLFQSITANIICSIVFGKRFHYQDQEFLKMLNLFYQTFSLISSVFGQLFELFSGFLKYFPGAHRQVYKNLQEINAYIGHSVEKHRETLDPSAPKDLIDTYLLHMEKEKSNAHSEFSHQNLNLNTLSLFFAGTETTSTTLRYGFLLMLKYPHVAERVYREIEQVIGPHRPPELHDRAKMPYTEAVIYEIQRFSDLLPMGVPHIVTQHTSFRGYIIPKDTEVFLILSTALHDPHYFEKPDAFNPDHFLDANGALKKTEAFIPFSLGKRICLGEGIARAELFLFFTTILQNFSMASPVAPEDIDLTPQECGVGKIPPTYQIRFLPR

[2] = Bidirectional permeability and efflux in Caco-2 cells; format: in vitro ADME; settings: human
Caco-2 cell monolayers = assay: as above; format: in vitro ADME
Plasma stability [3] = format: in vitro ADME, beagle dog
[4] = Plasma and brain levels in male CD-1 mice after a single IP dose; format: in vivo, CD-1 mouse; settings: for Tissue Homogenate Conc / Plasma Conc: male CD-1 mice, IP 10 mg/kg single
CD-1 mouse hepatocytes = assay: Hepatocyte stability; format: in vitro ADME; settings: 1.00 μM
Plasma stability [5] = format: in vitro ADME, CD-1 mouse
monkey hepatocytes = assay: Metabolite identification in hepatocytes; format: in vitro ADME; settings: cryopreserved monkey hepatocytes, FC-12738 10 μM, 37 °C, 240 min, LC-UV-MS
[6] = In vitro protein binding, rapid equilibrium dialysis; format: in vitro ADME; settings: CD-1, mouse, plasma
[7] = Single rising dose pharmacokinetics in beagle dogs; format: in vivo, beagle dog; settings: for AUC(0-inf) / AUC(0-t) / Cmax / Tmax / half-life: male, beagle, dog, plasma, sc
[8] = Metabolite identification in liver microsomes; format: in vitro ADME; settings: human liver microsomes, 10 μM, 37 °C, 120 min, NADPH
[9] = 2.00 μM, with 10.0 μM GF120918, Caco-2, 120 min
[10] = 10.0 μM, with 10.0 μM GF120918, Caco-2, 120 min
[11] = 10.0 μM, without GF120918, Caco-2, 120 min
[12] = 100 μM, with 10.0 μM GF120918, Caco-2, 120 min
[13] = 100 μM, without GF120918, Caco-2, 120 min
[14] = male, CD-1, mouse, brain homogenate, ip, 10 mg/kg
[15] = male, CD-1, mouse, brain, ip, 10 mg/kg
[16] = male, CD-1, mouse, plasma, ip, 10 mg/kg

Chain of OATP1B1 (Q9Y6L6 whole entry, species assumed): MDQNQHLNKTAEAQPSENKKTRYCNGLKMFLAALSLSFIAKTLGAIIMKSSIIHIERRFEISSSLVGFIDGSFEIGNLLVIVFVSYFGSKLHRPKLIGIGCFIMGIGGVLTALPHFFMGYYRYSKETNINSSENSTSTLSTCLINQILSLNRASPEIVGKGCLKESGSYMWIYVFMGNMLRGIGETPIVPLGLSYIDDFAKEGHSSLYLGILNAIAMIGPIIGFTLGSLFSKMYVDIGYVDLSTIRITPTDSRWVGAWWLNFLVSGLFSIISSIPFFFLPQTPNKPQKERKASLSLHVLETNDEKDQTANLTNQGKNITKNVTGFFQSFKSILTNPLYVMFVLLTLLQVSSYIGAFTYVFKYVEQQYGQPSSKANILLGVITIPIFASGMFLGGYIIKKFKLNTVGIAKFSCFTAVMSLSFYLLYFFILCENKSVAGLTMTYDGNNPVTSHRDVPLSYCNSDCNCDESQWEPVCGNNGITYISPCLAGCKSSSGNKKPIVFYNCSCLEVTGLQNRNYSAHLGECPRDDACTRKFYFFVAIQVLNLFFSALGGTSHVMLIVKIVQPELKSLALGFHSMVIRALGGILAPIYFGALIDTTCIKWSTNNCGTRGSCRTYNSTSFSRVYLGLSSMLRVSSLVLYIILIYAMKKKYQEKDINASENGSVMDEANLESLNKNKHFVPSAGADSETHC

## CC(C)[C@@H](NC(=O)[C@H](N)Cc1ccc(O)cc1)C(=O)N[C@H](CC(=O)O)C(=O)N[C@H](CCCCN)C(=O)N[C@H](CCCNC(=N)N)C(=O)O [FC-12738, (D-Tyr)-(D-Val)-(D-Asp)-(D-Lys)-(D-Arg)] (HELM PEPTIDE1{[dY].[dV].[dD].[dK].[dR]}$$$$V2.0)
Plasma stability [1]; human plasma, 2.00 μM, 37.0 °C, up to 120 min
  half-life: > 6.212 h
Plasma stability [1]; human, plasma
  remaining at 10 min, 2 μM: 93.3%
  remaining at 0.5 h, 2 μM: 93.6%
  remaining at 1 h, 2 μM: 90.6%
  remaining at 2 h, 2 μM: 85.6%
OATP1B1
  pIC50: < 4.00
CYP2B6
  pIC50: < 4.00
CYP2B6; cutoff IC50 shift >= 1.5-fold, 30 min pre-incubation ± NADPH
  Time-dependent inhibition of CYP2B6: no time-dependent inhibition
[2]; Caco-2
  efflux ratio at 120 min, 10 μM: 0.88
  efflux ratio at 120 min, 100 μM: 1.24
[2]; Caco-2, with GF120918 10.0 μM
  efflux ratio at 120 min, 10 μM: 1.13
Caco-2 cell monolayers; [9]
  Mean %Solution Recovery A to B: <92.9%
  Mean %Solution Recovery B to A: <96.5%
Caco-2 cell monolayers; [10]
  Mean %Solution Recovery A to B: 89.9%
  Mean %Solution Recovery B to A: 96.5%
Caco-2 cell monolayers; [11]
  Mean %Solution Recovery A to B: 90.2%
  Mean %Solution Recovery B to A: 100.5%
Caco-2 cell monolayers; [12]
  Efflux Ratio (ERi): 1.23
  Mean %Solution Recovery A to B: 86.9%
  Mean %Solution Recovery B to A: 97.0%
Caco-2 cell monolayers; [13]
  Mean %Solution Recovery A to B: 89.1%
  Mean %Solution Recovery B to A: 95.3%
Caco-2 cell monolayers; 2.00, 10.0 and 100 μM
  Permeability across the Caco-2 cell monolayer (conclusion): low permeable
Plasma stability [3]; beagle dog plasma, 2.00 μM, 37.0 °C, up to 120 min
  half-life: > 6.212 h
Plasma stability [3]; beagle, dog, plasma
  remaining at 10 min, 2 μM: 106%
  remaining at 0.5 h, 2 μM: 105%
  remaining at 1 h, 2 μM: 106%
  remaining at 2 h, 2 μM: 101%
[4]; brain homogenate, 0.5 h, animal 2
  Tissue Homogenate Conc: 17.6 ng/mL
[4]; brain homogenate, 0.5 h, animal 3
  Tissue Homogenate Conc: 14.1 ng/mL
[4]; brain homogenate, 1 h, animal 1
  Tissue Homogenate Conc: 8.28 ng/mL
[4]; brain homogenate, 1 h, animal 2
  Tissue Homogenate Conc: 10.1 ng/mL
[4]; brain homogenate, 1 h, animal 3
  Tissue Homogenate Conc: 8.41 ng/mL
[4]; brain homogenate, 2 h, animal 1
  Tissue Homogenate Conc: 6.96 ng/mL
[4]; brain homogenate, 2 h, animal 2
  Tissue Homogenate Conc: 5.73 ng/mL
[4]; brain homogenate, 2 h, animal 3
  Tissue Homogenate Conc: 7.47 ng/mL
[4]; brain homogenate, 4 h, animal 1
  Tissue Homogenate Conc: 1.76 ng/mL
[4]; brain homogenate, 4 h, animal 2
  Tissue Homogenate Conc: 1.22 ng/mL
[4]; brain homogenate, 4 h, animal 3
  Tissue Homogenate Conc: 1.06 ng/mL
[4]; [14]
  level at 0.5 h: 16.4 ng/mL
  level at 1 h: 8.93 ng/mL
  level at 2 h: 6.72 ng/mL
  level at 4 h: 1.35 ng/mL
[4]; [15]
  tissue level at time at 0.5 h: 65.5 ng/g
  tissue level at time at 1 h: 35.7 ng/g
  tissue level at time at 2 h: 26.9 ng/g
  tissue level at time at 4 h: 5.39 ng/g
[4]; [16]
  level at 0.5 h: 2090 ng/mL
  level at 1 h: 1210 ng/mL
  level at 2 h: 627 ng/mL
  level at 4 h: 84.1 ng/mL
  level at 8 h: 16.7 ng/mL
[4]; plasma, 0.5 h, animal 1, LC-MS/MS
  Plasma Conc: 2230 ng/mL
[4]; plasma, 0.5 h, animal 2
  Plasma Conc: 1790 ng/mL
[4]; plasma, 0.5 h, animal 3
  Plasma Conc: 2260 ng/mL
[4]; plasma, 1 h, animal 1
  Plasma Conc: 885 ng/mL
[4]; plasma, 1 h, animal 2
  Plasma Conc: 1320 ng/mL
[4]; plasma, 1 h, animal 3
  Plasma Conc: 1420 ng/mL
[4]; plasma, 2 h, animal 1
  Plasma Conc: 543 ng/mL
[4]; plasma, 2 h, animal 2
  Plasma Conc: 592 ng/mL
[4]; plasma, 2 h, animal 3
  Plasma Conc: 745 ng/mL
[4]; plasma, 4 h, animal 1
  Plasma Conc: 97.9 ng/mL
[4]; plasma, 4 h, animal 2
  Plasma Conc: 74.6 ng/mL
[4]; plasma, 4 h, animal 3
  Plasma Conc: 79.8 ng/mL
[4]; plasma, 8 h, animal 1
  Plasma Conc: 19.1 ng/mL
[4]; plasma, 8 h, animal 2
  Plasma Conc: 17.5 ng/mL
[4]; plasma, 8 h, animal 3
  Plasma Conc: 13.4 ng/mL
CD-1 mouse hepatocytes; cryopreserved CD-1 mouse hepatocytes, 37.0°C, 120 min
  intrinsic clearance CLint(hep): < 1.9 μL/min/10^6 cells
CD-1 mouse hepatocytes; cryopreserved CD-1 mouse hepatocytes, 37.0°C, 120 min, LC-MS/MS
  half-life: > 6.212 h
CD-1 mouse hepatocytes; scaled from CD-1 mouse hepatocytes
  hepatic clearance CLint(liver): < 22.1 mL/min/kg
Plasma stability [5]; CD-1, mouse, plasma
  remaining at 10 min, 2 μM: 104%
  remaining at 0.5 h, 2 μM: 100%
  remaining at 1 h, 2 μM: 111%
  remaining at 2 h, 2 μM: 100%
Plasma stability [5]; CD-1 mouse plasma, 2.00 μM, 37.0 °C, up to 120 min
  half-life: > 6.212 h
Monkey hepatocytes
  Relative Abundance (UV%): 89.24%
[6]
  fraction unbound at 6 h, 0.2 µM: 0.449
  fraction unbound at 6 h, 2 µM: 0.455
  fraction unbound at 6 h, 10 µM: 0.479
[7]; male beagle dogs, SC 1 to 25 mg/kg
  Dose dependence of systemic exposure (AUC0-last and Cmax): increased with dose proportionally
[7]; 1 mg/kg
  AUC(0-inf): 2770 ng·h/mL
  AUC(0-t): 2760 ng·h/mL
  Cmax: 925 ng/mL
  Tmax: 1 h
  half-life: 0.957 h
[7]; 5 mg/kg
  AUC(0-inf): 16800 ng·h/mL
  AUC(0-t): 16700 ng·h/mL
  Cmax: 7090 ng/mL
  Tmax: 1 h
  half-life: 0.906 h
[7]; 25 mg/kg
  AUC(0-inf): 72800 ng·h/mL
  AUC(0-t): 72800 ng·h/mL
  Cmax: 33300 ng/mL
  Tmax: 0.667 h
  half-life: 2.01 h
[8]
  Metabolites detected: No metabolites of FC-12738 were detected
[8]; LC-UV-MS
  Relative Abundance (MS Peak Area %Total): 100.00%
